From patent US10865384B2, “2,4,5-tri-substituted azole-based casein kinase 1 inhibitors as inducers for cardiomyogenesis” (AGENCY FOR SCIENCE, TECHNOLOGY AND RESEARCH, priority 2014, dated 2020)
Where two headings read alike, the source gives them in different places.

Columns and labels:
[1] = molecular target: CK1δ (Homo sapiens (Human), UniProt P48730); experiment: LanthaScreen Eu kinase binding assay, CK1δ
[2] = molecular target: CK1ϵ (Homo sapiens (Human), UniProt P49674); experiment: LanthaScreen Eu kinase binding assay, CK1ϵ
[3] = molecular target: p38α MAPK (Homo sapiens (Human), UniProt Q16539); experiment: HitHunter p38 MAP kinase binding assay
[4] = tested on: hESC3 Nkx2.5eGFP/w cells; experiment: Differentiation in 96-U bottom ultra-low attachment well plates, GFP area imaging; type: cell-based, human; conditions: 5 μM; for Average GFP %: after CHIR99021, read on day 14, GFP area over embryoid body size; for Average GFP μm^2 / Average Area μm^2: day 14; for Average Area μm^2: embryoid body size
[5] = tested on: H3 hESCs Nkx2.5eGFP/w; experiment: High yield cardiomyocyte differentiation after 24 h CHIR99021 pre-treatment; type: cell-based, human; conditions: CHIR99021 only; CHIR99021 with SB203580 (days 1-8); CHIR99021 with IM-31 (days 4-8)
[6] = bound given in μM, read-out: p38α MAPK IC50

CK1ϵ, sequence (P49674 whole entry): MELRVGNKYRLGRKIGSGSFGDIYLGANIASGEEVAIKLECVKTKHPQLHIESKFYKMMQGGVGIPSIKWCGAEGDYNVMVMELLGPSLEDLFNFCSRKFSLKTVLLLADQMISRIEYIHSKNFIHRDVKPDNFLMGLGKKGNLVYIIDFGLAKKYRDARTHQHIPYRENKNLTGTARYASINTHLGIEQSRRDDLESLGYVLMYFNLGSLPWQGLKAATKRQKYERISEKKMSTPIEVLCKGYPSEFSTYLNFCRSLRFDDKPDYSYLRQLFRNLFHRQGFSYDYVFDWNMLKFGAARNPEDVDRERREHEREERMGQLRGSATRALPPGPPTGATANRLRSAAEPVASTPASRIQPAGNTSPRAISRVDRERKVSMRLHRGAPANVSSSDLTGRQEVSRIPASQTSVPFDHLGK
p38α MAPK, sequence (Q16539 whole entry, looked up): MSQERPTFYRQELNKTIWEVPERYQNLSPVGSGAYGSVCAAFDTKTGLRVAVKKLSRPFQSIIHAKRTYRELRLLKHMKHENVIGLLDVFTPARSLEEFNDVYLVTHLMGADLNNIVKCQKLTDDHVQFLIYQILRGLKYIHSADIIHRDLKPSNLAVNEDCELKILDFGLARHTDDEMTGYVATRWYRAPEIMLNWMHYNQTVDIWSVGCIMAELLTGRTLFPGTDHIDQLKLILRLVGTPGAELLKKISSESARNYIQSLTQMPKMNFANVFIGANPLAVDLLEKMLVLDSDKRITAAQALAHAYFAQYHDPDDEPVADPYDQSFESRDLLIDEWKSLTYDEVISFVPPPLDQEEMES
CK1δ, sequence (P48730 whole entry): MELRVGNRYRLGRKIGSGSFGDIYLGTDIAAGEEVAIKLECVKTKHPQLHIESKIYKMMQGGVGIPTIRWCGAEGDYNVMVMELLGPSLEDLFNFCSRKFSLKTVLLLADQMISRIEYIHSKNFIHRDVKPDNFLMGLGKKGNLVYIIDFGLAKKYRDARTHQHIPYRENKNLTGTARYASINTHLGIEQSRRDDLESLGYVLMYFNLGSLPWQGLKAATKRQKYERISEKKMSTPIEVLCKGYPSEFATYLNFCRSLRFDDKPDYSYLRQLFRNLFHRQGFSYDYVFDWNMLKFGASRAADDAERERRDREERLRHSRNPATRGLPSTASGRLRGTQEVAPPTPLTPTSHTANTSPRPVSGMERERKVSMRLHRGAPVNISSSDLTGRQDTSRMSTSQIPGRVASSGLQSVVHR

| SMILES | inhibition at 1 µM [1] [%] | IC50 ([3]; read-out: p38α MAPK IC50 ± SEM) [µM] | IC50 ([1]; Table 3, read-out: IC50 CK1δ) [µM] | IC50 ([1]; read-out: CK1δ IC50 ± SEM) [µM] | IC50 ([2]; Table 3, read-out: IC50 Ck1ε) [µM] | IC50 ([2]; read-out: CK1ϵ IC50 ± SEM) [µM] | also measured |
| --- | --- | --- | --- | --- | --- | --- | --- |
| COc1ccc2cc(-c3nc(-c4cccc(C)c4)c(C4=CCOCC4)[nH]3)ccc2c1 [IM-09, 5(4)-(3,6-dihydro-2H-pyran-4-yl)-2-(6-methoxynaphthalen-2-yl)-4(5)-(m-tolyl)-1H-imidazole] | 13 | 2.35 ± 0.374 |  |  |  |  | CK1ϵ inhibition at 1 μM [2]: No inhibition at 1 μM |
| Cc1cccc(-c2nc(-c3ccccc3)[nH]c2C2=CCOCC2)c1 [IM-11, 5(4)-(3,6-dihydro-2H-pyran-4-yl)-2-phenyl-4(5)-(m-tolyl)-1H-imidazole] |  | 0.526 ± 0.137 |  |  |  |  | CK1δ inhibition at 1 μM [1]: No inhibition at 1 μM; CK1ϵ inhibition at 1 μM [2]: No inhibition at 1 μM |
| Cc1cccc(-c2nc(-c3ccccc3Cl)[nH]c2C2=CCOCC2)c1 [IM-12, 2-(2-chlorophenyl)-5(4)-(3,6-dihydro-2H-pyran-4-yl)-4(5)-(m-tolyl)-1H-imidazole] | 23 | 0.043 ± 0.002 |  |  |  |  | inhibition at 1 µM [2]: 10% |
| Cc1cccc(-c2nc(-c3ccccc3Br)[nH]c2C2=CCOCC2)c1 [IM-13, 2-(2-bromophenyl)-5(4)-(3,6-dihydro-2H-pyran-4-yl)-4(5)-(m-tolyl)-1H-imidazole] | 23 | 0.019 ± 0.002 |  |  |  |  | inhibition at 1 µM [2]: 23% |
| Cc1cccc(-c2nc(-c3ccccc3O)[nH]c2C2=CCOCC2)c1 [IM-14, 2-(5(4)-(3,6-dihydro-2H-pyran-4-yl)-4(5)-(m-tolyl)-1H-imidazol-2-yl)phenol] |  |  |  |  |  |  | CK1δ inhibition at 1 μM [1]: No inhibition at 1 μM; inhibition at 1 µM [2]: 3%; IC50 [3, 6]: > 5 µM |
| Cc1cccc(-c2nc(-c3ccc(O)cc3)[nH]c2C2=CCOCC2)c1 [IM-15, 4-(5(4)-(3,6-dihydro-2H-pyran-4-yl)-4(5)-(m-tolyl)-1H-imidazol-2-yl)phenol] |  | 0.033 ± 0.002 |  |  |  |  | CK1δ inhibition at 1 μM [1]: No inhibition at 1 μM; CK1ϵ inhibition at 1 μM [2]: No inhibition at 1 μM |
| Cc1cccc(-c2nc(-c3ccc([S+](C)[O-])cc3)[nH]c2C2=CCOCC2)c1 (stereo not drawn) [IM-16] |  | 0.073 ± 0.021 | 2.54 | 2.54 | 5.61 | 5.61 ± 0.319 |  |
| Cc1cccc(-c2nc(-c3ccc([N+](=O)[O-])cc3)[nH]c2C2=CCOCC2)c1 [IM-17, 5(4)-(3,6-dihydro-2H-pyran-4-yl)-2-(4-nitrophenyl)-4(5)-(m-tolyl)-1H-imidazole] | 17 | 0.02 ± 0.002 |  |  |  |  | CK1ϵ inhibition at 1 μM [2]: No inhibition at 1 μM |
| Cc1cccc(-c2nc(-c3c(F)cccc3F)[nH]c2C2=CCOCC2)c1 [IM-18, 2-(2,6-difluorophenyl)-5(4)-(3,6-dihydro-2H-pyran-4-yl)-4(5)-(m-tolyl)-1H-imidazole] | 3 | 0.014 ± 0.002 |  |  |  | 1.24 ± 0.437 |  |
| Cc1cccc(-c2nc(-c3ccccc3F)[nH]c2-c2ccncc2)c1 [IM-19] |  | 0.0047 ± 0.0012 | 0.454 | 0.454 ± 0.028 | 0.15 | 0.15 ± 0.089 |  |
| Fc1ccc(-c2nc(-c3ccccc3F)[nH]c2C2=CCOCC2)cc1 [IM-20, 5(4)-(3,6-dihydro-2H-pyran-4-yl)-2-(2-fluorophenyl)-4(5)-(4-fluorophenyl)-1H-imidazole] |  | 0.561 ± 0.141 | 1.52 | 1.52 ± 0.825 | 1.15 | 1.15 ± 0.287 |  |
| Cc1ccc(-c2nc(-c3ccccc3F)[nH]c2C2=CCOCC2)cc1 [IM-21, 5(4)-(3,6-dihydro-2H-pyran-4-yl)-2-(2-fluorophenyl)-4(5)-(p-tolyl)-1H-imidazole] |  | 3.37 ± 0.824 |  |  |  |  | CK1δ inhibition at 1 μM [1]: No inhibition at 1 μM; CK1ϵ inhibition at 1 μM [2]: No inhibition at 1 μM |
| Fc1ccc(-c2nc(-c3ccc4ccccc4c3F)[nH]c2C2=CCOCC2)cc1 [IM-22, 5(4)-(3,6-dihydro-2H-pyran-4-yl)-2-(1-fluoronaphthalen-2-yl)-4(5)-(4-fluorophenyl)-1H-imidazole] | 14 | 2.31 ± 0.714 |  |  |  |  | CK1ϵ inhibition at 1 μM [2]: No inhibition at 1 μM |
| Fc1ccc(-c2nc(-c3c(F)cccc3F)[nH]c2C2=CCOCC2)cc1 [IM-23, 2-(2,6-difluorophenyl)-5(4)-(3,6-dihydro-2H-pyran-4-yl)-4(5)-(4-fluorophenyl)-1H-imidazole] |  | 0.055 ± 0.014 | 0.548 | 0.548 ± 0.116 | 0.751 | 0.751 ± 0.168 |  |
| Oc1ccc(-c2nc(-c3ccc(F)cc3)c(C3=CCOCC3)[nH]2)cc1 [IM-24, 4-(5(4)-(3,6-dihydro-2H-pyran-4-yl)-4(5)-(4-fluorophenyl)-1H-imidazol-2-yl)phenol] | 14 | 0.149 ± 0.033 |  |  |  |  | CK1ϵ inhibition at 1 μM [2]: No inhibition at 1 μM |
| C[S+]([O-])c1ccc(-c2nc(-c3ccc(F)cc3)c(C3=CCOCC3)[nH]2)cc1 (stereo not drawn) [IM-25] |  | 0.454 ± 0.067 | 1.49 | 1.49 ± 0.285 | 5.89 | 5.89 ± 0.18 |  |
| Cc1cccc(-c2nc(-c3c(F)cccc3F)[nH]c2-c2ccncc2)c1 [IM-26] |  | 0.0043 ± 0.0017 | 0.078 | 0.078 ± 0.02 | 0.044 | 0.044 ± 0.005 |  |
| Cc1cccc(-c2nc(-c3ccc(O)cc3)[nH]c2-c2ccncc2)c1 [IM-27] |  | 0.0084 ± 0.003 | 1.28 | 1.28 ± 0.828 | 0.411 | 0.411 ± 0.12 |  |
| Cc1cccc(-c2nc(-c3ccc([S+](C)[O-])cc3)[nH]c2-c2ccncc2)c1 (stereo not drawn) [IM-28] |  | 0.024 ± 0.009 | 0.708 | 0.708 ± 0.043 | 0.274 | 0.274 ± 0.007 |  |
| Fc1ccc(-c2nc(-c3ccc4ccccc4c3F)[nH]c2-c2ccncc2)cc1 [IM-29, 4-(2-(1-fluoronaphthalen-2-yl)-4(5)-(4-fluorophenyl)-1H-imidazol-5(4)-yl)pyridine] |  | 0.073 ± 0.017 | 0.015 | 0.015 ± 0.003 |  | 0.016 ± 0.003 | IC50 ([2]; read-out: IC50 Ck1ε): 0.016 µM |
| Fc1ccc(-c2nc(-c3ccccc3F)[nH]c2-c2ccncc2)cc1 [IM-30, 4-(2-(2-fluorophenyl)-4(5)-(4-fluorophenyl)-1H-imidazol-5(4)-yl)pyridine] |  | 0.02 ± 0.004 | 0.032 | 0.032 ± 0.004 | 0.032 | 0.032 ± 0.004 | Cardiogenic properties ([4]; at specific time course (induction day 2 or 3)): higher cardiogenic properties as SB203580 and IWP-2; Average GFP % ([4]; Induction Day 2): 32.8%; Average GFP μm^2 ([4]; Induction Day 2): 250.1 μm^2; Average Area μm^2 ([4]; Induction Day 2): 816.0 μm^2; Average GFP % ([4]; Induction Day 3): 36.5%; Average GFP μm^2 ([4]; Induction Day 3): 354.1 μm^2; Average Area μm^2 ([4]; Induction Day 3): 968.7 μm^2 |
| C[S+]([O-])c1ccc(-c2nc(-c3ccc(F)cc3)c(-c3ccncc3)o2)cc1 (stereo not drawn) [OZ-06] | 46 | 0.314 ± 0.044 |  |  |  |  | inhibition at 1 µM [2]: 54% |
| C[S+]([O-])c1ccc(-c2nc(-c3ccncc3)c(-c3ccc(F)cc3)o2)cc1 (stereo not drawn) [OZ-12, 5-(4-fluorophenyl)-2-(4-(methylsulfinyl)phenyl)-4-(pyridin-4-yl)oxazole] | 34 |  |  |  |  |  | inhibition at 1 µM [2]: 51%; IC50 [3, 6]: > 5 µM |
| C[S+]([O-])c1ccc(-c2nc(-c3ccc(F)cc3)c(-c3ccncc3)[nH]2)cc1 (stereo not drawn) [SB203580, reference compound] |  |  |  |  |  |  | Average GFP % ([4]; Induction Day 2): 34.6%; Average GFP μm^2 ([4]; Induction Day 2): 217.8 μm^2; Average Area μm^2 ([4]; Induction Day 2): 655.4 μm^2; Average GFP % ([4]; Induction Day 3): 3.7%; Average GFP μm^2 ([4]; Induction Day 3): 40.2 μm^2; Average Area μm^2 ([4]; Induction Day 3): 814.2 μm^2; Average beating frequency [5]: 25-30 beats per minute; Beat count (percentage of EBs contracting within 10 s) [5]: over 75%; Beating area [5]: > 5 mm^2 |
